Measurements taken from patent US11591369B2, “Alpha(v)beta(6) integrin-binding peptides and methods of use thereof” (priority 2018, dated 2023).
Several values for one entry are separate records, joined by “and”; a condition that tells them apart may be missing. Equal values may be shown once. Read-outs that look alike come from different tables or passages of the source. Where a SMILES comes first, the peptide text is derived from it. Primed or numbered codes have the meaning given here. Where no end group is shown, it is not given here. [ ]: non-standard residue; d: D form. The star is where a group is joined. (18F)FB = [18F] fluorobenzoyl group, O=C(c1ccc([18F])cc1)*; (18F)FB″ = [18F]fluorobenzoyl, O=C(c1ccc([18F])cc1)*; PEG28″ = polyethylene glycol, 28 units; PEG4′ = polyethylene glycol, 4 units; Benzoyl(4-F) = O=C(c1ccc(F)cc1)*; FB = fluorobenzoyl

Key:
[1] = Circular dichroism (CD) spectroscopy; format: physicochemical; conditions: for % Helical Content CD Buffer: 25 mM phosphate + 100 mM NaF; for % Helical Content CD Buffer + 30% TFE: buffer with 30% trifluoroethanol
DX3puroβ6 (αvβ6+) cells = test: [18F]-radiolabeled peptide cell binding and internalization, DX3puroβ6 (αvβ6+) cells; format: cell-based, human; conditions: for binding to DX3puroβ6 (αvβ6+) cells: % of total activity, 37° C.
αvβ6 integrin = target: T1, αvβ6 integrin (Homo sapiens, UniProt P06756+P18564); test: Competitive binding ELISA against biotinylated LAP (BtLAP), αvβ6 integrin; conditions: for fold drop in affinity for αvβ6: compared to T1
T1 construct: All purified integrins were purchased from R&D Systems (MN, USA); purchased R&D Systems (MN, USA)
T1 sequence (P06756 31-992 limits assumed): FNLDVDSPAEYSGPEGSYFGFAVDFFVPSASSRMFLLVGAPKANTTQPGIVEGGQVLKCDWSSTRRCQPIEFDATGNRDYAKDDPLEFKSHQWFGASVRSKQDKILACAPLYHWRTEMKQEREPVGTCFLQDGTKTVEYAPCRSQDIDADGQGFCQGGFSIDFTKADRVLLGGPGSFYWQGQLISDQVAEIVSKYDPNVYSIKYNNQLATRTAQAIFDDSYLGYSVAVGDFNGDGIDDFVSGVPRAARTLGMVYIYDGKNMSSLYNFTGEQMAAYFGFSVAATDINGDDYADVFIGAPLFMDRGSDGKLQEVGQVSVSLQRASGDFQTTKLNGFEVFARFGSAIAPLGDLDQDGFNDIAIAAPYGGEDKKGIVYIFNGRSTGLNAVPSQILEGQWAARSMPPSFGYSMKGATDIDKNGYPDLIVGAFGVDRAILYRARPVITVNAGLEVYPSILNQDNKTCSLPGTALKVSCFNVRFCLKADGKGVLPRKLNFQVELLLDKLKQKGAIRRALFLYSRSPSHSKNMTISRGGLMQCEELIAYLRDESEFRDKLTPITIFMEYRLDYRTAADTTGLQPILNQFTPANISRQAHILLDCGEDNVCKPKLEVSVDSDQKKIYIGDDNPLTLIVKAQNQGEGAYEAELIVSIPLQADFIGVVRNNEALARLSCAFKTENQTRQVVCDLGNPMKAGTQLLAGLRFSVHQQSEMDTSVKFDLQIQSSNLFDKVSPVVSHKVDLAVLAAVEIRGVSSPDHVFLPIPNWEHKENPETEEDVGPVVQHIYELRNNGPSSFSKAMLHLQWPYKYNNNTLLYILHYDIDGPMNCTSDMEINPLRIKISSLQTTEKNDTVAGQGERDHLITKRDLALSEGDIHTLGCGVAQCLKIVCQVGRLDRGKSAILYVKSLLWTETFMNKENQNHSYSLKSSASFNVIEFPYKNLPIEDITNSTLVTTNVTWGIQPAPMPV
T1 sequence (P18564 22-707 limits assumed): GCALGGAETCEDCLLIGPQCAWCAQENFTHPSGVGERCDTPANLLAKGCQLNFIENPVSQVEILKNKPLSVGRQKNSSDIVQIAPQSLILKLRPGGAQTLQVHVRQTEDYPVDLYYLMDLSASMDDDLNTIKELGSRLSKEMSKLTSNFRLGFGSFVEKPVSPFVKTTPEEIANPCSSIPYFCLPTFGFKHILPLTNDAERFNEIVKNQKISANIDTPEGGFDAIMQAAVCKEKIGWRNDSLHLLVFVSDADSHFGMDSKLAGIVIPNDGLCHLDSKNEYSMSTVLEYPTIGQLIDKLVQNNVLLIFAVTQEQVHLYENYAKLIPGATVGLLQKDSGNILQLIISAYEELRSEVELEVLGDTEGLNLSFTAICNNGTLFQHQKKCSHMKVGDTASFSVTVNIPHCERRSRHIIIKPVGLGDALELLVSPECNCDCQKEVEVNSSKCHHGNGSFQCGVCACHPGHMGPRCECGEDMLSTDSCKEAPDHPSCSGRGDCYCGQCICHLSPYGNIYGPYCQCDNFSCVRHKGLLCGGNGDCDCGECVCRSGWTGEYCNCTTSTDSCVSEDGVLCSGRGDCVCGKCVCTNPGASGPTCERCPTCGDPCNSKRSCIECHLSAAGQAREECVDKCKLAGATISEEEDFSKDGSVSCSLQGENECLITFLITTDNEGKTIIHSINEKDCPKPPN

[2] = 37° C., 1 hour, radio-HPLC

FB-RGDLQVLAQKVART [A20-14mer, reference compound]
% Helical Content CD Buffer [1]: 15.1% | % Helical Content CD Buffer + 30% TFE [1]: 35.7% | DX3puroβ6 (αvβ6+)/DX3puro (αvβ6−) selectivity ratio (DX3puroβ6 (αvβ6+) cells; cell binding, 1 hour): 8.4±0.4 :1

CC(C)C[C@H](NC(=O)[C@H](Cc1ccc(O)cc1)NC(=O)[C@@H](NC(=O)[C@H](CC(C)C)NC(=O)[C@H](CC(=O)O)NC(=O)CNC(=O)[C@@H](NC(=O)COCCOCCNC(=O)c1ccc(F)cc1)C(C)C)[C@@H](C)O)C(=O)N[C@@H](CCCCN)C(=O)N[C@@H](CCC(N)=O)C(=O)N[C@@H](CCCCN)C(=O)N[C@H](C(=O)N[C@@H](C)C(=O)N[C@@H](CCCNC(=N)N)C(=O)N[C@H](C(=O)NCCOCCOCCOCCOCCOCCOCCOCCOCCOCCOCCOCCOCCOCCOCCOCCOCCOCCOCCOCCOCCOCCOCCOCCOCCOCCOCCOCCOCCC(N)=O)[C@@H](C)O)C(C)C [T1-a]
fold drop in affinity for αvβ6 (αvβ6 integrin): 24 fold

CC(C)C[C@H](NC(=O)[C@H](Cc1ccc(O)cc1)NC(=O)[C@@H](NC(=O)[C@H](CC(C)C)NC(=O)[C@H](CC(=O)O)NC(=O)CNC(=O)[C@@H](NC(=O)c1ccc(F)cc1)C(C)C)[C@@H](C)O)C(=O)N[C@@H](CCCCN)C(=O)N[C@@H](CCC(N)=O)C(=O)N[C@@H](CCCCN)C(=O)N[C@H](C(=O)N[C@@H](C)C(=O)N[C@@H](CCCNC(=N)N)C(=O)N[C@H](C(=O)NCCOCCOCCOCCOCCOCCOCCOCCOCCOCCOCCOCCOCCOCCOCCOCCOCCOCCOCCOCCOCCOCCOCCOCCOCCOCCOCCOCCOCCC(N)=O)[C@@H](C)O)C(C)C [T1]
intact peptide in mouse serum [2]: 61% | DX3puroβ6 (αvβ6+)/DX3puro (αvβ6−) selectivity ratio (DX3puroβ6 (αvβ6+) cells): 41.7±5.3 :1 | binding to DX3puroβ6 (αvβ6+) cells (DX3puroβ6 (αvβ6+) cells; 1 hour): 18.1±0.8%

[^18F]FB-RSDLTPLF ({(18F)FB}-RSDLTPLF) [N-[^18F]KL3]
percent internalized relative to the amount bound to DX3puroβ6 (αvβ6+) cells (DX3puroβ6 (αvβ6+) cells; 1 hour): 23.5±4.7% | binding to DX3puroβ6 (αvβ6+) cells (DX3puroβ6 (αvβ6+) cells; 1 hour): 0.7±0.2%

[^18F]FB-PEG4-VGDLTYLKQKVART-PEG28 ({(18F)FB″-PEG4′}-VGDLTYLKQKVART[PEG28″]) [N-[^18F]T1-b]
intact peptide in mouse serum ([2]; 60 min): 72% and 75% | percent internalized relative to the amount bound to DX3puroβ6 (αvβ6+) cells (DX3puroβ6 (αvβ6+) cells; 1 hour): 33.9±7.9%

CC(C)C[C@H](NC(=O)[C@H](CO)NC(=O)[C@H](CC(=O)O)NC(=O)[C@H](CC(C)C)NC(=O)[C@H](CC(=O)O)NC(=O)[C@@H](NC(=O)[C@H](CCCNC(=N)N)NC(=O)c1ccc(F)cc1)[C@@H](C)O)C(=O)N[C@@H](CCCNC(=N)N)C(=O)N[C@H](C(N)=O)[C@@H](C)O [RTD-9mer, reference compound]
% Helical Content CD Buffer [1]: 2.7% | % Helical Content CD Buffer + 30% TFE [1]: 2.1% | IC50 (αvβ6 integrin): 22 ± 3 nM | DX3puroβ6 (αvβ6+)/DX3puro (αvβ6−) selectivity ratio (DX3puroβ6 (αvβ6+) cells; cell binding, 1 hour): 1.7±0.2 :1

CC(C)C[C@H](NC(=O)[C@H](Cc1ccc(O)cc1)NC(=O)[C@@H](NC(=O)[C@H](CC(C)C)NC(=O)[C@H](CC(=O)O)NC(=O)CNC(=O)[C@@H](NC(=O)CCOCCOCCOCCOCCOCCOCCOCCOCCOCCOCCOCCOCCNC(=O)c1ccc(F)cc1)C(C)C)[C@@H](C)O)C(=O)N[C@@H](CCCCN)C(=O)N[C@@H](CCC(N)=O)C(=O)N[C@@H](CCCCN)C(=O)N[C@H](C(=O)N[C@@H](C)C(=O)N[C@@H](CCCNC(=N)N)C(=O)N[C@H](C(=O)NCCOCCOCCOCCOCCOCCOCCOCCOCCOCCOCCOCCOCCOCCOCCOCCOCCOCCOCCOCCOCCOCCOCCOCCOCCOCCOCCOCCOCCC(N)=O)[C@@H](C)O)C(C)C [T1-d]
fold drop in affinity for αvβ6 (αvβ6 integrin): 9 fold

CC(C)C[C@H](NC(=O)[C@H](Cc1ccc(O)cc1)NC(=O)[C@@H](NC(=O)[C@H](CC(C)C)NC(=O)[C@H](CC(=O)O)NC(=O)CNC(=O)[C@@H](NC(=O)c1ccc(CNC(=O)CCOCCOCCOCCOCCOCCOCCOCCOCCOCCOCCOCCOCCOCCOCCOCCOCCOCCOCCOCCOCCOCCOCCOCCOCCOCCOCCOCCOCCNC(=O)c2ccc(F)cc2)cc1)C(C)C)[C@@H](C)O)C(=O)N[C@@H](CCCCN)C(=O)N[C@@H](CCC(N)=O)C(=O)N[C@@H](CCCCN)C(=O)N[C@H](C(=O)N[C@@H](C)C(=O)N[C@@H](CCCNC(=N)N)C(=O)N[C@H](C(=O)NCCOCCOCCOCCOCCOCCOCCOCCOCCOCCOCCOCCOCCOCCOCCOCCOCCOCCOCCOCCOCCOCCOCCOCCOCCOCCOCCOCCOCCC(N)=O)[C@@H](C)O)C(C)C [T1-g]
fold higher binding to αvβ6-integrin (αvβ6 integrin; ELISA, compared to T1-e): 2 fold

CC(C)C[C@H](NC(=O)[C@H](Cc1ccc(O)cc1)NC(=O)[C@@H](NC(=O)[C@H](CC(C)C)NC(=O)[C@H](CC(=O)O)NC(=O)CNC(=O)[C@@H](NC(=O)CCOCCOCCOCCOCCOCCOCCOCCOCCNC(=O)c1ccc(F)cc1)C(C)C)[C@@H](C)O)C(=O)N[C@@H](CCCCN)C(=O)N[C@@H](CCC(N)=O)C(=O)N[C@@H](CCCCN)C(=O)N[C@H](C(=O)N[C@@H](C)C(=O)N[C@@H](CCCNC(=N)N)C(=O)N[C@H](C(=O)NCCOCCOCCOCCOCCOCCOCCOCCOCCOCCOCCOCCOCCOCCOCCOCCOCCOCCOCCOCCOCCOCCOCCOCCOCCOCCOCCOCCOCCC(N)=O)[C@@H](C)O)C(C)C [T1-c]
fold drop in affinity for αvβ6 (αvβ6 integrin): 50 fold

CC(C)C[C@H](NC(=O)[C@H](CC(=O)O)NC(=O)CNC(=O)[C@H](CCCNC(=N)N)NC(=O)CNC(=O)c1ccc(F)cc1)C(=O)NCC(=O)N[C@@H](CCCNC(=N)N)C(=O)N[C@@H](CC(C)C)C(=O)N[C@@H](C)C(=O)N[C@@H](CCC(N)=O)C(=O)N[C@@H](CCCCN)C(=O)N[C@H](C(=O)N[C@@H](C)C(=O)N[C@@H](CCCNC(=N)N)C(=O)N[C@H](C(N)=O)[C@@H](C)O)C(C)C [SFLAP3-15mer] ({Benzoyl(4-F)}-GRGDLGRLAQKVART-NH2)
% Helical Content CD Buffer [1]: 13.4% | % Helical Content CD Buffer + 30% TFE [1]: 31.6% | IC50 (αvβ6 integrin): 1.3 ± 0.2 nM | DX3puroβ6 (αvβ6+)/DX3puro (αvβ6−) selectivity ratio (DX3puroβ6 (αvβ6+) cells; cell binding, 1 hour): 3.9 ± 0.4:1

[^18F]FB-VGDLTYLKKKVART ({(18F)FB″}-VGDLTYLKKKVART) [N-[^18F]P1K-b]
binding to DX3puroβ6 (αvβ6+) cells (DX3puroβ6 (αvβ6+) cells; 1 hour): 7.9±0.7%

FB-RGDLQVLA ({FB}-RGDLQVLA) [A20-8mer, reference compound]
% Helical Content CD Buffer [1]: 6.7% | % Helical Content CD Buffer + 30% TFE [1]: 6.9% | DX3puroβ6 (αvβ6+)/DX3puro (αvβ6−) selectivity ratio (DX3puroβ6 (αvβ6+) cells; cell binding, 1 hour): 7.8±0.5 :1

CC(C)C[C@H](NC(=O)[C@H](Cc1ccc(O)cc1)NC(=O)[C@@H](NC(=O)[C@H](CC(C)C)NC(=O)[C@H](CC(=O)O)NC(=O)CNC(=O)[C@@H](NC(=O)CCOCCOCCOCCOCCNC(=O)c1ccc(F)cc1)C(C)C)[C@@H](C)O)C(=O)N[C@@H](CCCCN)C(=O)N[C@@H](CCC(N)=O)C(=O)N[C@@H](CCCCN)C(=O)N[C@H](C(=O)N[C@@H](C)C(=O)N[C@@H](CCCNC(=N)N)C(=O)N[C@H](C(=O)NCCOCCOCCOCCOCCOCCOCCOCCOCCOCCOCCOCCOCCOCCOCCOCCOCCOCCOCCOCCOCCOCCOCCOCCOCCOCCOCCOCCOCCC(N)=O)[C@@H](C)O)C(C)C [T1-b]
fold drop in affinity for αvβ6 (αvβ6 integrin): 13 fold

CC(C)C[C@H](NC(=O)[C@H](CO)NC(=O)[C@H](CC(=O)O)NC(=O)[C@H](CC(C)C)NC(=O)[C@H](CC(=O)O)NC(=O)[C@@H](NC(=O)[C@H](CCCNC(=N)N)NC(=O)c1ccc(F)cc1)[C@@H](C)O)C(=O)N[C@@H](CCCNC(=N)N)C(=O)N[C@@H](CCC(N)=O)C(=O)N[C@@H](CCCCN)C(=O)N[C@H](C(=O)N[C@@H](C)C(=O)N[C@@H](CCCNC(=N)N)C(=O)N[C@H](C(N)=O)[C@@H](C)O)C(C)C [RTD-14mer] ({Benzoyl(4-F)}-RTDLDSLRQKVART-NH2)
% Helical Content CD Buffer [1]: 18.1% | % Helical Content CD Buffer + 30% TFE [1]: 26.2% | IC50 (αvβ6 integrin): 0.4 ± 0.1 nM | DX3puroβ6 (αvβ6+)/DX3puro (αvβ6−) selectivity ratio (DX3puroβ6 (αvβ6+) cells): 9.1±0.8 :1

CC(C)C[C@H](NC(=O)[C@H](Cc1ccc(O)cc1)NC(=O)[C@@H](NC(=O)[C@H](CC(C)C)NC(=O)[C@H](CC(=O)O)NC(=O)CNC(=O)[C@@H](NC(=O)CCOCCOCCOCCOCCOCCOCCOCCOCCOCCOCCOCCOCCOCCOCCOCCOCCOCCOCCOCCOCCOCCOCCOCCOCCOCCOCCOCCOCCNC(=O)c1ccc(F)cc1)C(C)C)[C@@H](C)O)C(=O)N[C@@H](CCCCN)C(=O)N[C@@H](CCC(N)=O)C(=O)N[C@@H](CCCCN)C(=O)N[C@H](C(=O)N[C@@H](C)C(=O)N[C@@H](CCCNC(=N)N)C(=O)N[C@H](C(=O)NCCOCCOCCOCCOCCOCCOCCOCCOCCOCCOCCOCCOCCOCCOCCOCCOCCOCCOCCOCCOCCOCCOCCOCCOCCOCCOCCOCCOCCC(N)=O)[C@@H](C)O)C(C)C [T1-e]
fold drop in affinity for αvβ6 (αvβ6 integrin): 39 fold

[^18F]FB-VGDLTYLKRKATVQ ({(18F)FB″}-VGDLTYLKRKATVQ) [N-[^18F]P1Q-Scrb]
DX3puroβ6 (αvβ6+)/DX3puro (αvβ6−) selectivity ratio (DX3puroβ6 (αvβ6+) cells): 1.7±0.06 :1 | binding to DX3puroβ6 (αvβ6+) cells (DX3puroβ6 (αvβ6+) cells; 1 hour): 2.1±0.2%

[^18F]FB-VGDLTYLKQKVART ({(18F)FB″}-VGDLTYLKQKVART) [N-[^18F]P1Q]
percent internalized relative to the amount bound to DX3puroβ6 (αvβ6+) cells (DX3puroβ6 (αvβ6+) cells; 1 hour): 10.2±1.2% | binding to DX3puroβ6 (αvβ6+) cells (DX3puroβ6 (αvβ6+) cells; 1 hour): 5.6±0.2% and 2.1±0.2% and 5.6%

[^18F]FB-RSDLTPLFQKVART ({(18F)FB″}-RSDLTPLFQKVART) [N-[^18F]KL3Q]
percent internalized relative to the amount bound to DX3puroβ6 (αvβ6+) cells (DX3puroβ6 (αvβ6+) cells; 1 hour): 22.8±1.3% | binding to DX3puroβ6 (αvβ6+) cells (DX3puroβ6 (αvβ6+) cells; 1 hour): 1.3±0.1% | fold increase in cell binding (DX3puroβ6 (αvβ6+) cells; compared to N-[18F]KL3): 2 fold

CC(C)C[C@H](NC(=O)[C@H](CCCNC(=N)N)NC(=O)CNC(=O)[C@H](CC(C)C)NC(=O)[C@H](CC(=O)O)NC(=O)CNC(=O)[C@H](CCCNC(=N)N)NC(=O)CNC(=O)c1ccc(F)cc1)C(N)=O [SFLAP3-8mer, reference compound] ({Benzoyl(4-F)}-GRGDLGRL-NH2)
% Helical Content CD Buffer [1]: 11% | % Helical Content CD Buffer + 30% TFE [1]: 6.2% | IC50 (αvβ6 integrin): 89 ± 6.5 nM | DX3puroβ6 (αvβ6+)/DX3puro (αvβ6−) selectivity ratio (DX3puroβ6 (αvβ6+) cells; cell binding, 1 hour): 1.4 ± 0.2:1
